One compound from patent US20090093509A1, “Methods and Compositions for the Treatment of Pruritus” (priority 2007, published 2009) can be followed below.

The nature of this data set: pH of aqueous solution. The class given is physicochemical. How it is done:
The pH of the formulations of the invention are greater than 3 and less than 7. For example, the pH can be 3-7, 3-6, 4-7, 4-6, or 4-5. The pH of the solution and the measured pH of the topical composition may not be the same. For the purposes of this specification, either pH may be relevant but it is preferred that the pH is defined as that in the aqueous phase and not in the final cream. The pH of a 0.1% w/v aqueous solution of nalmefene hydrochloride is 6.13 at 22.5° C.: the corresponding values for 1% and 5% solutions are 5.76 and 4.66.

Structures are written as SMILES. Where a name gives a salt, the structure may show the parent alone.

Turning to `C=C1CC[C@@]2(O)[C@H]3Cc4ccc(O)c5c4[C@@]2(CCN3CC2CC2)[C@H]1O5` [nalmefene hydrochloride, 6-methylene-6-desoxy-N-cyclopropylmethyl-14-hydroxydihydronormorphine], the “pH of aqueous solution” value runs as follows: (0.1% w/v aqueous solution, 22.5° C.) 6.13; (1% solution) 5.76; (5% solution) 4.66.
